Results taken from BindingDB's records for doi:10.1021/jm034206x (Boehringer Ingelheim (Canada), 2003).

Molecular target: T1, Replication protein E1 (Human papillomavirus 11, UniProt P04014)
T1 sequence (P04014 whole entry): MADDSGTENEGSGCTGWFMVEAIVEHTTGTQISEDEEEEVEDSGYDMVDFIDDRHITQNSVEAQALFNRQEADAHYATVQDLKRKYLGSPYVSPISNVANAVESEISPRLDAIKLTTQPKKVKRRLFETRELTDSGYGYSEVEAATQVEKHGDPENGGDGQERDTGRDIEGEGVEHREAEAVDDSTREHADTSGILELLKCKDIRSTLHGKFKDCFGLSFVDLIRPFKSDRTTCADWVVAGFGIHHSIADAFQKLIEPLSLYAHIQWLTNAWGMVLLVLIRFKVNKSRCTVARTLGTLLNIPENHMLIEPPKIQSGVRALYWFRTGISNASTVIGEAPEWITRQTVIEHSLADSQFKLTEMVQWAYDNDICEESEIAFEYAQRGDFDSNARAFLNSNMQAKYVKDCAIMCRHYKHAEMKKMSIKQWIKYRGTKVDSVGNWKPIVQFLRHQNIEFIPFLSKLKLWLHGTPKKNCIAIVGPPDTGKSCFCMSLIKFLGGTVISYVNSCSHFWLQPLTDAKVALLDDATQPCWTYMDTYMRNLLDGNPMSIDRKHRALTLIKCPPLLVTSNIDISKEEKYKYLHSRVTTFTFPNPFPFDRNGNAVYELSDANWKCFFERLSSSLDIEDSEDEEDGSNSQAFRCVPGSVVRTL
Assay: ChEBML_84985
Excerpt: Ability to inhibit in vitro ATPase activity of human papillomavirus (HPV6) E1 helicase

Row | IC50 | Structure (SMILES)
1 | 4.3 nM | O=C(O)CS(=O)(=O)c1ccc(-c2cccc(C(=O)NCc3cccc4ccccc34)c2)cc1 [{3'-[(Naphthalen-1-ylmethyl)-carbamoyl]-biphenyl-4-sulfonyl}-acetic acid]

Molecular target: Replication protein E1 (Human papillomavirus type 6)
Assay: Ability to inhibit in vitro ATPase activity of human papillomavirus (HPV6) E1 helicase

Row | Structure (SMILES) | IC50
2 | O=C(O)CS(=O)(=O)c1ccc(-c2ccc(C(=O)Nc3ccccc3)cc2)cc1 [(4'-Phenylcarbamoyl-biphenyl-4-sulfonyl)-acetic acid] | 1300 nM
3 | O=C(O)CS(=O)(=O)c1ccc(-c2ccc(C(=O)N(Cc3ccccc3)Cc3ccccc3)cc2)cc1 [(4'-Dibenzylcarbamoyl-biphenyl-4-sulfonyl)-acetic acid] | 1100 nM
4 | CS(=O)(=O)c1ccc(-c2cccc(C(=O)NCc3cccc4ccccc34)c2)cc1 [4'-Methanesulfonyl-biphenyl-3-carboxylic acid (naphthalen-1-ylmethyl)-amide] | > 80000 nM
5 | O=C(O)CS(=O)(=O)c1ccc(-c2nccs2)cc1 [(4-Thiazol-2-yl-benzenesulfonyl)-acetic acid] | 20000 nM
6 | O=C(O)CS(=O)(=O)c1ccc(-c2ccc(CC(=O)Nc3ccccc3)cc2)cc1 [(4'-Phenylcarbamoylmethyl-biphenyl-4-sulfonyl)-acetic acid] | 160 nM
7 | O=C(O)CS(=O)(=O)c1ccc(-c2cccc3ccccc23)cc1 [(4-Naphthalen-1-yl-benzenesulfonyl)-acetic acid] | 5400 nM
8 | O=C(O)CS(=O)(=O)c1ccc(-c2cccc(C(=O)Nc3ccccc3)c2)cc1 [(3'-Phenylcarbamoyl-biphenyl-4-sulfonyl)-acetic acid] | 420 nM
9 | O=C(O)CS(=O)(=O)c1ccc(-c2ccc(CC(=O)NCc3ccccc3)cc2)cc1 [(4'-Benzylcarbamoylmethyl-biphenyl-4-sulfonyl)-acetic acid] | 340 nM
10 | O=C(O)CS(=O)(=O)c1cccc(COc2ccccc2)c1 [(3-Phenoxymethyl-benzenesulfonyl)-acetic acid] | > 80000 nM
11 | COc1ccc(-c2ccc(S(=O)(=O)CC(=O)O)cc2)cc1 [(4'-Methoxy-biphenyl-4-sulfonyl)-acetic acid] | 1300 nM
12 | O=C(O)CS(=O)(=O)c1ccc(-c2ccc(C(=O)NCc3ccccc3)cc2)cc1 [(4'-Benzylcarbamoyl-biphenyl-4-sulfonyl)-acetic acid] | 510 nM
13 | CS(=O)(=O)c1ccc(-c2ccccc2)cc1 [4-Methanesulfonyl-biphenyl] | > 80000 nM
14 | O=C(NCc1cccc2ccccc12)c1cccc(-c2ccc(C(=O)C(F)(F)P(=O)(O)O)cc2)c1 [(1,1-Difluoro-2-{3'-[(naphthalen-1-ylmethyl)-carbamoyl]-biphenyl-4-yl}-2-oxo-ethyl)-phosphonic acid] | 740 nM
15 | CC(C(=O)O)S(=O)(=O)c1ccc(-c2ccccc2)cc1 (centres undefined) [2-(Biphenyl-4-sulfonyl)-propionic acid] | 17000 nM
16 | O=C(O)CS(=O)(=O)c1ccc(Sc2ccccc2)cc1 [(4-Phenylsulfanyl-benzenesulfonyl)-acetic acid] | > 80000 nM
17 | CC(C)(C(=O)O)S(=O)(=O)c1ccc(-c2ccccc2)cc1 [2-(Biphenyl-4-sulfonyl)-2-methyl-propionic acid] | > 80000 nM
18 | NC(=O)CS(=O)(=O)c1ccc(-c2ccccc2)cc1 [2-(Biphenyl-4-sulfonyl)-acetamide] | > 80000 nM
19 | COc1cccc(-c2ccc(S(=O)(=O)CC(=O)O)cc2)c1 [(3'-Methoxy-biphenyl-4-sulfonyl)-acetic acid] | 4000 nM
20 | O=C(O)CS(=O)(=O)c1ccc(-c2ccc3c(c2)OCO3)cc1 [(4-Benzo[1,3]dioxol-5-yl-benzenesulfonyl)-acetic acid] | 1300 nM
21 | O=C(O)CS(=O)(=O)c1ccc(NCCc2ccccc2)cc1 [(4-Phenethylamino-benzenesulfonyl)-acetic acid] | 67000 nM

Continued, values first:

Row | IC50 | Structure (SMILES)
22 | 27 nM | Cc1cccc(CNC(=O)c2cccc(-c3ccc(S(=O)(=O)CC(=O)O)cc3)c2)c1 [[3'-(3-methyl-benzylcarbamoyl)-biphenyl-4-sulfonyl]-acetic acid]
23 | 9.2 nM | Cc1cccc(CNC(=O)c2cccc(-c3ccc(S(=O)(=O)CC(=O)O)cc3)c2)c1C [[3'-(2,3-dimethyl-benzylcarbamoyl)-biphenyl-4-sulfonyl]-acetic acid]
24 | 1900 nM | CC(=O)NCCNC(=O)Cc1ccc(-c2ccc(S(=O)(=O)CC(=O)O)cc2)cc1 [{4'-[(2-Acetylamino-ethylcarbamoyl)-methyl]-biphenyl-4-sulfonyl}-acetic acid]
25 | 43 nM | C[C@@H](NC(=O)c1cccc(-c2ccc(S(=O)(=O)CC(=O)O)cc2)c1)c1ccccc1 [[3'-((R)-1-Phenyl-ethylcarbamoyl)-biphenyl-4-sulfonyl]-acetic acid]
26 | > 80000 nM | O=C(O)CS(=O)(=O)c1cccc(-c2ccccc2)c1 [(Biphenyl-3-sulfonyl)-acetic acid]
27 | 1700 nM | C[C@H](NC(=O)c1cccc(-c2ccc(S(=O)(=O)CC(=O)O)cc2)c1)c1ccccc1 [[3'-(1-(S)-phenyl-ethylcarbamoyl)-biphenyl-4-sulfonyl]-acetic acid]
28 | 32000 nM | O=S(=O)(O)CS(=O)(=O)c1ccc(-c2ccccc2)cc1 [(Biphenyl-4-sulfonyl)-methanesulfonic acid]
29 | 110 nM | O=C(O)CS(=O)(=O)c1ccc(-c2cccc(CC(=O)Nc3ccccc3)c2)cc1 [{3'-[(phenylcarbamoyl)-methyl]-biphenyl-4-sulfonyl}-acetic acid]
30 | 4800 nM | CN(C(=O)c1ccc(-c2ccc(S(=O)(=O)CC(=O)O)cc2)cc1)c1ccccc1 [[4'-(Methyl-phenyl-carbamoyl)-biphenyl-4-sulfonyl]-acetic acid]
31 | 6500 nM | O=C(O)C(F)S(=O)(=O)c1ccc(-c2ccccc2)cc1 (centres undefined) [(Biphenyl-4-sulfonyl)-fluoro-acetic acid]
32 | 22000 nM | O=C(O)CS(=O)(=O)c1ccc(-c2cccc(C(=O)N3CCOCC3)c2)cc1 [[3'-(Morpholine-4-carbonyl)-biphenyl-4-sulfonyl]-acetic acid]
33 | > 80000 nM | O=C(O)CSc1ccc(-c2ccccc2)cc1 [(Biphenyl-4-sulfanyl)-acetic acid]
34 | 3300 nM | O=C(O)CS(=O)(=O)c1ccc(-c2ccc(C(=O)N3CCCCC3)cc2)cc1 [[4'-(Piperidine-1-carbonyl)-biphenyl-4-sulfonyl]-acetic acid]
35 | 40000 nM | O=C(O)CS(=O)(=O)c1ccc2ccccc2c1 [(Naphthalene-2-sulfonyl)-acetic acid]
36 | 32 nM | Cc1ccccc1CNC(=O)c1cccc(-c2ccc(S(=O)(=O)CC(=O)O)cc2)c1 [[3'-(2-methyl-benzylcarbamoyl)-biphenyl-4-sulfonyl]-acetic acid]
37 | 300 nM | O=C(O)CS(=O)(=O)c1ccc(-c2cccc(CC(=O)NCc3ccccc3)c2)cc1 [[3'-(Benzylcarbamoyl-methyl)-biphenyl-4-sulfonyl]-acetic acid]
38 | 20 nM | O=C(O)CS(=O)(=O)c1ccc(-c2cccc(CC(=O)N[C@H]3CCc4ccccc43)c2)cc1 [[3'-((S)-Indan-1-ylcarbamoylmethyl)-biphenyl-4-sulfonyl]-acetic acid]
39 | 30000 nM | Cc1nc(-c2ccc(S(=O)(=O)CC(=O)O)cc2)cs1 [[4-(2-Methyl-thiazol-4-yl)-benzenesulfonyl]-acetic acid]
